Reference: ChEMBL document CHEMBL1201862, “PubChem BioAssay data set” (2004)
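Results reflect a 48-hour exposure of cells in 96-well plates to compound at five concentrations. The concentration for 50% growth inhibition is given as GI50.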 Activity calls are given as the source filed them. Cut-off read from the data, not from the text of the source: active = GI50 up to about 1.1 µM and inactive = higher.

What was measured:
Experiment in all cases: NCI tumour cell line growth inhibition, 48 h
A549 = tested on: A549
CAKI-1 = tested on: CAKI-1
DMS-273 = tested on: DMS-273
DU-145 = tested on: DU-145
HT-29 = tested on: HT-29
K562 = tested on: K562
KM12 = tested on: KM12
LOX IMVI = tested on: LOX IMVI
M19-MEL = tested on: M19-MEL
MDA-MB-231 = tested on: MDA-MB-231
MDA-N = tested on: MDA-N
Malme-3M = tested on: Malme-3M
OVCAR-5 = tested on: OVCAR-5
SF-268 = tested on: SF-268
SK-MEL-28 = tested on: SK-MEL-28
SK-OV-3 = tested on: SK-OV-3
SN12C = tested on: SN12C
SR = tested on: SR
UACC-257 = tested on: UACC-257
HL-60 = tested on: HL-60

Compound	GI50 (A549)	GI50 (CAKI-1)	GI50 (DMS-273)	GI50 (DU-145)	GI50 (HT-29)	GI50 (K562)	GI50 (KM12)	GI50 (LOX IMVI)	GI50 (M19-MEL)	GI50 (MDA-MB-231)	GI50 (MDA-N)	GI50 (Malme-3M)	GI50 (OVCAR-5)	GI50 (SF-268)	GI50 (SK-MEL-28)	GI50 (SK-OV-3)	GI50 (SN12C)	GI50 (SR)	GI50 (UACC-257)	GI50 (HL-60)
Cc1cc(Cl)cc2c1NC(=O)C2(O)CC(=O)c1ccco1 (stereo unspecified)	> 70.6 µM (inactive)	> 100 µM (inactive)	> 100 µM (inactive)	> 100 µM (inactive)	> 79.6 µM (inactive)	27.1 µM (inactive)	> 75.9 µM (inactive)	> 42 µM (inactive)	15.6 µM (inactive)	35.3 µM (inactive)	10.4 µM (inactive)	> 48.5 µM (inactive)	> 100 µM (inactive)	> 100 µM (inactive)	> 70 µM (inactive)	> 100 µM (inactive)	> 85.1 µM (inactive)	0.506 µM (active)	45.9 µM (inactive)	
O=C(O)C(CS)NCc1c2ccccc2nc2ccccc12 (stereo unspecified)	91.6 µM (inactive)	34.4 µM (inactive)	27 µM (inactive)		35.6 µM (inactive)	26.1 µM (inactive)	26.9 µM (inactive)	30.5 µM (inactive)	34.9 µM (inactive)			38.2 µM (inactive)	> 100 µM (inactive)	40.7 µM (inactive)	72.6 µM (inactive)	> 100 µM (inactive)	34.2 µM (inactive)	19.5 µM (inactive)	57.8 µM (inactive)	22.3 µM (inactive)
COC(=O)C(C(=O)C(N)=O)c1csc(-n2nc(-c3ccccc3)cc2-c2ccccc2)n1 (stereo unspecified)	> 31.6 µM (inactive)	10.6 µM (inactive)	> 31.6 µM (inactive)		41.9 µM (inactive)	23.8 µM (inactive)	22.6 µM (inactive)	> 88.1 µM (inactive)	> 31.6 µM (inactive)			> 31.6 µM (inactive)	> 100 µM (inactive)	> 31.6 µM (inactive)	> 31.6 µM (inactive)	> 31.6 µM (inactive)	> 10 µM (inactive)	> 10 µM (inactive)	19.8 µM (inactive)	26.1 µM (inactive)
COc1ccccc1NC(=O)C1=C(C)NC(C)=C(C(=O)Nc2ccccc2OC)C1c1ccccc1OC	> 100 µM (inactive)	> 100 µM (inactive)	> 100 µM (inactive)		> 100 µM (inactive)	60.5 µM (inactive)	> 100 µM (inactive)	> 100 µM (inactive)	> 100 µM (inactive)			> 100 µM (inactive)	> 100 µM (inactive)	> 100 µM (inactive)	> 100 µM (inactive)	> 100 µM (inactive)	> 100 µM (inactive)	83.2 µM (inactive)	> 100 µM (inactive)	75.2 µM (inactive)
CCCCCCCCC/C=C1\CCC(CN(C)C)C1=O (stereo unspecified)	4.39 µM (inactive)	2.25 µM (inactive)	1.69 µM (inactive)		1.7 µM (inactive)	1.86 µM (inactive)	1.64 µM (inactive)	1.22 µM (inactive)	1.86 µM (inactive)			3.03 µM (inactive)	14.8 µM (inactive)	1.97 µM (inactive)	2.03 µM (inactive)	17.2 µM (inactive)	2.08 µM (inactive)	2.43 µM (inactive)	1.69 µM (inactive)	1.94 µM (inactive)
CN(C)C[C@H]1CC[C@@H](CN(C)C)C1=O	> 50 µM (inactive)	8.79 µM (inactive)	8.71 µM (inactive)	24.3 µM (inactive)	9.84 µM (inactive)	0.564 µM (active)	16.9 µM (inactive)	7.14 µM (inactive)	8.83 µM (inactive)	9.86 µM (inactive)	8.55 µM (inactive)	3 µM (inactive)	8.79 µM (inactive)	11.2 µM (inactive)	5.15 µM (inactive)	> 50 µM (inactive)	8.59 µM (inactive)	2.21 µM (inactive)	8.47 µM (inactive)	1.29 µM (inactive)
Cc1cc(C)[n+](CCOc2ccc(/C(=C(/Cl)c3ccccc3)c3ccccc3)cc2)c(C)c1.[O-][Cl+3]([O-])([O-])[O-]	1.55 µM (inactive)	4.49 µM (inactive)	0.366 µM (active)		0.809 µM (active)	0.257 µM (active)	0.697 µM (active)	0.778 µM (active)	0.495 µM (active)			1.4 µM (inactive)	2.69 µM (inactive)	0.933 µM (active)	1.32 µM (inactive)	1.25 µM (inactive)	0.774 µM (active)	0.804 µM (active)	0.692 µM (active)	0.215 µM (active)
[N-]=[N+]=Nc1cc(=O)oc2ccccc12	> 100 µM (inactive)	> 100 µM (inactive)	> 100 µM (inactive)		> 100 µM (inactive)	> 100 µM (inactive)	> 100 µM (inactive)	> 100 µM (inactive)	> 100 µM (inactive)			> 100 µM (inactive)	> 100 µM (inactive)	> 100 µM (inactive)	> 100 µM (inactive)	> 100 µM (inactive)	> 100 µM (inactive)	48.9 µM (inactive)	> 100 µM (inactive)	> 100 µM (inactive)
Nc1ccc(S(=O)(=O)Nc2cnc3c(Cl)cccc3n2)cc1 [CHLORSULFAQUINOXALINE]	117 µM (inactive)	56.2 µM (inactive)	152 µM (inactive)	175 µM (inactive)	248 µM (inactive)	23.2 µM (inactive)	147 µM (inactive)	84.9 µM (inactive)	232 µM (inactive)	> 69.7 µM (inactive)	24.3 µM (inactive)	164 µM (inactive)	192 µM (inactive)	197 µM (inactive)	151 µM (inactive)	> 33 µM (inactive)	94.4 µM (inactive)	56.4 µM (inactive)	344 µM (inactive)	167 µM (inactive)
